The text below walks through data of a melting point compilation (Tetko et al.; mined from patent text by program, amines drawn as free bases though some values may be those of a salt).

A word on the melting point: it is the temperature, or range, at which the solid turns liquid.

Compound `O=C(CCN1CCN(c2ccccc2)CC1)c1ccc2oc3ccc(C(=O)CCN4CCN(c5ccccc5)CC4)cc3c(=O)c2c1` registered a melting point of 199 to 201 °C.
Under `O=C1NC(=O)C(c2ccccc2Cl)O1` (configuration not stated) stands 106 to 108 °C; under `CCOC(=O)c1cc(O)c2nc(C)n(C)c2c1`, 272 to 273 °C; under `C#CCn1c(=O)sc2cc(F)c(-n3c(=O)cc(C)n(C)c3=O)cc21`, 180 to 181 °C.
To `O=C(NCCCCn1ccnc1)c1ccc(Cl)c(Cl)c1` belongs 86 to 88 °C.
To `CSc1ccc(C2=NNC(=O)CC2c2ccccc2)cc1` (configuration not stated) belongs 213 to 214 °C; to `COc1ccc(C=Cc2cc(F)c(OC)c(OC)c2)cc1O`, 86 to 87 °C; to `O=C(CBr)Nc1c(C(F)(F)F)cc(OCc2ccccc2)cc1C(F)(F)F`, 173 to 175 °C.
`Cc1oc(C=Cc2cccc(Cl)c2)nc1CC#N` returned a melting point of 119 to 120 °C.
To `COC(=O)NC1(c2ccccc2)CCN(Cc2ccccc2)CC1` belongs 121 to 122 °C; to `CC(C)c1ccc(S(=O)(=O)n2c(COC(C)(C)C(=O)O)cc3cc(C(F)(F)F)ccc32)cc1`, 132 to 134 °C; to `CN=C1CSc2ccccc2CN1`, 278 to 280 °C.
Consider `CCN1C(=O)C2CCCN2Cc2ccccc21` (configuration not stated), for which the melting point fell in the range of 138 to 140 °C.
As for `CC(C)C(NC(=O)OCc1ccccc1)C(=O)Nc1nncs1` (racemic), the melting point is 162 to 164 °C.
To `CS(=O)c1ccc(Oc2ccc(Cl)c(Cl)c2)nc1C#N` (configuration not stated) belongs 165 to 167 °C.
Under `CCC1(c2ccncc2)CCC(=O)NC1=O` (configuration not stated) stands 134 to 136 °C; under `O=C(O)C(Sc1ccccc1)c1cc(Cl)cc(Cl)c1` (configuration not stated), 115 to 119 °C.
Under `CCC(O)(c1ccc(OCCCc2ccccc2)cc1)c1ccccc1OC` (configuration not stated) stands 75 to 76 °C; under `COc1ccc2c(c1)c(CC(=O)OCC(=O)O)c(C)n2C(=O)c1ccccc1C(F)(F)F`, 121 to 122 °C; under `CCOC(=O)c1[nH]cc(C)c(=O)c1C`, 124 to 126 °C.
Compound `NC(=O)Cc1cc(Oc2ccc3c(ccn3C(=O)Nc3ccc(CN4CCNCC4)c(C(F)(F)F)c3)c2)ncn1` yielded a melting point of 173 to 180 °C.
Under `CCCN(CCC)C(=O)CC1CN(Cc2ccccc2)c2ccc(OC(=O)Nc3ccc(C(C)C)cc3)cc21` (configuration not stated) stands 157 to 161 °C; under `Cc1cc(Cn2nc(C(F)(F)C(F)(F)F)nc2C(F)(F)F)ccc1NC(=O)c1cccc(Cl)c1C(=O)NC(C)(C)C=NO`, 203 to 206 °C.
To `Cc1ccc(C2Sc3ccccc3NC(=O)C2CO)cc1` (configuration not stated) belongs 229 °C; to `C=C(C)Cn1c(S)nc2c(cnn2C)c1=O`, 158 to 160 °C; to `CS(=O)(=O)c1ccc(-c2cnn(-c3ccc(F)cc3)c(=O)c2-c2cccc(F)c2)cc1`, 199 to 201 °C.
To `COc1cc(COc2nn(-c3ccccc3)cc2/C=C/P(=O)(O)O)ccc1OCc1nc(-c2ccco2)oc1C` belongs 138 to 140 °C; to `CN(C)C=Cc1[nH]c(=O)ccc1C#N`, 298 to 300 °C; to `O=[N+]([O-])CS(=O)(=O)c1c(F)c(F)cc(F)c1F`, 86 to 87 °C.
For `CCCc1c(COc2ccc(C(=O)CCCCCCc3nnn[nH]3)cc2)ccc(C(C)=O)c1O`, the melting point fell in the range of 134 to 137 °C.
Under `Cc1c(N)c2c(c3c1C(c1ccc(C(C)C)cc1)CO3)CCCC2` (configuration not stated) stands 106 to 107 °C.
In turn, `CC(C)Oc1ccccc1C1(N)C(=O)Nc2ccc(Cl)cc21` (configuration not stated) had a melting point of 193 °C.
Take `COc1ccc(-c2c(CCN3CCN(c4cc(C)ccn4)CC3)c3cccc4c3n2CCC4)cc1`: the melting point stood at 120 °C.
Under `O=c1[nH]c2ccc3cccnc3c2o1` stands > 300 °C.
Under `C=CCN1C(=O)NCC1c1ccc(OC)c(OC2CC3CCC2C3)c1` (configuration not stated) stands 110 to 113 °C; under `Cc1cc(CC(=O)NCc2cccc3c2C(=O)N(C2CCC(=O)NC2=O)C3=O)oc1C` (configuration not stated), 221 to 223 °C; under `Cc1[nH]c2ccccc2c1C(=O)NC1CCN(Cc2ccccc2)CC1`, 150 to 153 °C.
To `Cc1c(Cc2cccc(C(F)(F)F)c2)sc2c(-c3cc(F)cc(C(=O)O)c3)cccc12` belongs 168 to 169 °C; to `COc1cccc(C2(COc3cccc4cc(NS(=O)(=O)C(F)(F)F)ccc34)N=CNO2)c1` (configuration not stated), 138 to 140 °C; to `CCOCc1nc2c(N)nc3cc(N4CCCC4=O)ccc3c2n1CCCOC(C)C`, 165 to 167 °C.
With `C[C@H](NC(=O)OC(C)(C)C)C(=O)ON1C(=O)CCC1=O`, the melting point turned out to be 164 °C.
On to `O=C(C1CCN(c2ccncc2)CC1)N1CCN(S(=O)(=O)c2ccc3ccccc3c2)C(Cc2ccccc2)C1` (configuration not stated), for which the melting point lay within 186 to 188 °C.
Under `CCCc1c(C(C)C)cc(C(C)C)c(C(C)O)c1-c1ccc(F)cc1` (single isomer, unassigned; (+)) stands 114 to 116 °C; under `CCOC(=O)CN(CC(=O)OCC)C(=O)c1cc(OCCCCCCOc2ccc(-c3ccccc3)cc2)ccc1OCc1ccccc1`, 60 to 62 °C; under `Fc1cccc(CC2(Cc3cccc(F)n3)c3cccnc3-c3ncccc32)n1`, 221 to 225 °C.
To `O=C(O)c1ccc(N2C3CCC2CN(CC(=O)N2CC=C(c4cccc5ccsc45)CC2)C3)nc1` belongs 121 to 122 °C; to `O=C(O)CCc1cnoc1-c1cc(Cl)ccc1Cl`, 103 to 104 °C; to `CC(C)Nc1cccnc1N1CCN(C(=O)c2ccc(C(=O)O)cn2)CC1`, 211 to 214 °C.
Under `CC(C)Oc1ccc(-n2c(C(=O)NCCNC(=O)OC(C)(C)C)cc3cc(Oc4ccc(C(F)(F)F)cn4)ccc32)cc1` stands 188 to 190 °C; under `O=C(Nc1cccc2c1ncc1ccc(O)cc12)c1c(Cl)cccc1Cl`, > 250 °C.
For the compound `CN1C(=O)CC[C@]2(C)c3ccc(Sc4ccc([N+](=O)[O-])cn4)cc3CC[C@@H]12`, the melting point fell in the range of 188 to 191 °C.
Under `COc1cc(-n2nc(C#N)cc2-c2ccc(S(C)(=O)=O)cc2)ccc1F` stands 169 to 171 °C; under `O=C(O)Cn1c2ccccc2c2sccc(=O)c21`, 275 to 278 °C.
`CNCCOc1ccc(C(=C(c2ccccc2)C(F)(F)F)c2ccc(OCOC)cc2)cc1` gave a melting point of 87 to 90 °C.
Under `CCC(OC(C)C)c1cc(C(=O)OC)c(N)cc1C(F)(F)F` (configuration not stated) stands 54 to 56 °C.
To `Cc1nnc2ccc(-c3cccc(N(C)C(=O)N(C)C)c3)nn12` belongs 159 to 161 °C.
Under `COC(=O)CCc1cc2nc(Cl)ccc2n1S(=O)(=O)c1ccc2ncsc2c1` stands 146 °C; under `CCCc1nc2cc(Cl)c(S(N)(=O)=O)cc2[nH]1`, 230 to 234 °C; under `Cc1nc(-c2ccccc2C(F)(F)F)c2c(n1)N(c1ccc(C(C)C)cc1Br)CC(=O)N2`, 238 to 239 °C.
With `Cc1sc2[nH]c(=S)nc(N)c2c1C`, the melting point was > 260 °C.
To `O=c1[nH]c2ccccc2c2c(C(O)CC3CCCCC3)n(-c3ccccc3)nc12` (configuration not stated) belongs 254 to 259 °C; to `CCCCCCN(Cc1cccnc1)C(Nc1cc(C(C)(C)C)c(O)c(C(C)(C)C)c1)=C1C(=O)OC(C)(C)OC1=O`, 134 to 136 °C; to `Cc1ccc(-c2cnc([C@H]3CC[C@H](C#N)CC3)nc2)cc1`, 172 °C.
To `CC(C)=CCn1c(N(C)C[C@@H](C)N)nc2c1c(=O)n(C)c(=O)n2C` belongs 101 to 104 °C; to `COC(=O)C(CO)N(Cc1ccccc1N)S(=O)(=O)c1ccc(OC)cc1` (configuration not stated), 138 to 140 °C.
To `COc1ccc(C2=NN(C3CCN(c4ncccn4)CC3)C(=O)[C@@H]3CC=CC[C@H]23)cc1OC` belongs 163 to 166 °C; to `CCCCCCN1CCN(Cc2ccc([N+](=O)[O-])cc2)C(=O)C1=O`, 115 to 117 °C.
In turn, `CC(=O)NC(CC(=O)c1cc(Cl)ccc1N)C(=O)NC(CO)c1ccccc1` (configuration not stated) had a melting point of 212 to 215 °C.
Under `O=c1ccccn1CCCn1ccccc1=O` stands 132 °C; under `NC(=O)c1cccc(C(N)=O)c1[N+](=O)[O-]`, 283 to 285 °C.
As to `O=C(O)Cc1ccc(CC2(CNS(=O)(=O)c3ccccc3)CCCC2)cc1`, the melting point lay in the range of 154 to 156 °C.
`CC=C1OC(=O)c2c(OC)cccc21` yielded a melting point of 106 to 109 °C.
Under `C/C(NCCCc1ccccc1)=C(\C#N)C(N)=S` stands 125 to 126 °C.
As for `CC(C)(C)OC(=O)C[C@H](NC(=O)CNC(=O)CCc1ccc(C(=N)N)cc1)C(=O)NC1(C(=O)O)CCCC1`, the melting point was in the range of 136 to 138 °C.
`Cc1ncnc(-c2ccncc2)n1` displayed a melting point of 99 to 102 °C.
Under `COc1ccc(C(=O)N2CCN(c3ccc(N)c(CCC(=O)O)c3)CC2)cc1OC` stands 98 to 101 °C; under `CCCCCCCCCCCCCCCC1CCCC(=O)C1` (configuration not stated), 41 °C; under `CCCCCCC(C(=O)OCC)c1ccc(NC(=O)C2c3ccccc3-c3ccccc32)cc1` (configuration not stated), 174 to 175 °C.
To `CCCN(CCC)c1c([N+](=O)[O-])cc(C)c(C)c1[N+](=O)[O-]` belongs 42 to 43.5 °C; to `Cc1ccc(CNc2c3c(nc4ccccc24)CCCC3O)cc1` (configuration not stated), 176 to 178 °C; to `CCP(=O)(O)CC(=O)CN`, 189 to 192 °C.
To `Clc1ccc2nc(NCC3CCN(CC4COc5ccccc5O4)CC3)sc2c1` (configuration not stated) belongs 156 °C; to `CN(c1ccc(O)cc1)c1cc2ccc(Cl)cc2cn1`, 140 °C; to `COc1ccc2c(c1)c(C(=O)OCc1ccccc1)nn2Cc1ccccc1`, 107 to 109 °C.
`Cc1cccc(NC(c2ccc(C(F)(F)F)cc2)c2ccc3cccnc3c2O)n1` (configuration not stated) returned a melting point of 136 to 138 °C.
Under `CCOC(=O)c1[nH]c2ccc(Cl)cc2c1N` stands 126 to 127 °C; under `Clc1ncc(Br)n2nc(SCc3ccccc3)nc12`, 109 to 110 °C.
